Test results published in ChEMBL document CHEMBL5634184, “Direct Inhibition of BK Channels by Cannabidiol, One of the Principal Therapeutic Cannabinoids Derived from Cannabis sativa” (J Nat Prod, 2024).
Calls of active or inactive are those of the source. The rule behind the calls is not given here.

How the values were obtained:
[1] = molecular target: T1, Calcium-activated potassium channel subunit alpha-1 (Homo sapiens, UniProt Q12791); experiment: Inhibition of human KCNMA1 expressed in HEK293 cells assessed as reduction in amplitude current at 1 uM by inside-out configuration based patch clamp method; type: cell-based
[2] = molecular target: T1, Calcium-activated potassium channel subunit alpha-1; experiment: Inhibition of human KCNMA1 expressed in HEK293 cells assessed as reduction in amplitude current at 10 uM by inside-out configuration based patch clamp method relative to control; type: cell-based
[3] = molecular target: T1, Calcium-activated potassium channel subunit alpha-1; experiment: Inhibition of human KCNMA1 expressed in HEK293 cells assessed as reduction in 100+ mV pulse elicited current by inside-out configuration based patch clamp method; type: cell-based
[4] = molecular target: T1, Calcium-activated potassium channel subunit alpha-1; experiment: Inhibition of human KCNMA1 expressed in HEK293 cells assessed as decrease in maximal conductance at 0.3 to 10 uM by inside-out configuration based patch clamp method; type: cell-based; conditions: dose 0.3-10 µM
[5] = molecular target: T1, Calcium-activated potassium channel subunit alpha-1; experiment: Inhibition of human KCNMA1 expressed in HEK293 cells assessed as shift in activation curve to depolarized voltage (deltaV1/2) at 0.3 to 10 uM by inside-out configuration based patch clamp method; type: cell-based; conditions: dose 0.3-10 µM
[6] = molecular target: T1, Calcium-activated potassium channel subunit alpha-1; experiment: Inhibition of human KCNMA1 expressed in HEK293 cells assessed increase in time constant value of voltage activation at 1 uM by inside-out configuration based patch clamp method; type: cell-based
[7] = molecular target: T1, Calcium-activated potassium channel subunit alpha-1; experiment: Inhibition of human KCNMA1 expressed in HEK293 cells assessed effect on deactivation kinetics at 1 uM by inside-out configuration based patch clamp method; type: cell-based
[8] = molecular target: T1, Calcium-activated potassium channel subunit alpha-1; experiment: Reversible inhibition of human KCNMA1 expressed in HEK293 cells at 1 uM by whole cell configuration based patch clamp method
[9] = molecular target: T1, Calcium-activated potassium channel subunit alpha-1; experiment: Inhibition of human KCNMA1 expressed in HEK293 cells assessed as reduction in maximal conductance at 1 uM by whole cell configuration based patch clamp method
[10] = molecular target: T1, Calcium-activated potassium channel subunit alpha-1; experiment: Inhibition of human KCNMA1 expressed in HEK293 cells assessed as shift to depolarized potential at 1 uM by whole cell configuration based patch clamp method
[11] = molecular target: T1, Calcium-activated potassium channel subunit alpha-1; experiment: Inhibition of human KCNMA1 expressed in HEK293 cells assessed as reduction in voltage activation kinetics at 1 uM by whole cell configuration based patch clamp method
[12] = molecular target: T1, Calcium-activated potassium channel subunit alpha-1; experiment: Inhibition of human KCNMA1 expressed in HEK293 cells assessed as decrease in open probability at 3 uM under single channel current; type: cell-based
[13] = molecular target: T1, Calcium-activated potassium channel subunit alpha-1; experiment: Inhibition of human KCNMA1 expressed in HEK293 cells assessed as reduction in open probability at 3 uM at -40 mV relative to control; type: cell-based
[14] = molecular target: T1, Calcium-activated potassium channel subunit alpha-1; experiment: Inhibition of human KCNMA1 expressed in HEK293 cells assessed as increase in mean closed times at 3 uM at -40 mV (reference value: 33=/-12 ms); type: cell-based
[15] = molecular target: T1, Calcium-activated potassium channel subunit alpha-1; experiment: Inhibition of human KCNMA1 expressed in HEK293 cells assessed as reduction in unitary conductance at 3 uM (reference value: 242+/-10 pS); type: cell-based

T1 sequence (Q12791 whole entry): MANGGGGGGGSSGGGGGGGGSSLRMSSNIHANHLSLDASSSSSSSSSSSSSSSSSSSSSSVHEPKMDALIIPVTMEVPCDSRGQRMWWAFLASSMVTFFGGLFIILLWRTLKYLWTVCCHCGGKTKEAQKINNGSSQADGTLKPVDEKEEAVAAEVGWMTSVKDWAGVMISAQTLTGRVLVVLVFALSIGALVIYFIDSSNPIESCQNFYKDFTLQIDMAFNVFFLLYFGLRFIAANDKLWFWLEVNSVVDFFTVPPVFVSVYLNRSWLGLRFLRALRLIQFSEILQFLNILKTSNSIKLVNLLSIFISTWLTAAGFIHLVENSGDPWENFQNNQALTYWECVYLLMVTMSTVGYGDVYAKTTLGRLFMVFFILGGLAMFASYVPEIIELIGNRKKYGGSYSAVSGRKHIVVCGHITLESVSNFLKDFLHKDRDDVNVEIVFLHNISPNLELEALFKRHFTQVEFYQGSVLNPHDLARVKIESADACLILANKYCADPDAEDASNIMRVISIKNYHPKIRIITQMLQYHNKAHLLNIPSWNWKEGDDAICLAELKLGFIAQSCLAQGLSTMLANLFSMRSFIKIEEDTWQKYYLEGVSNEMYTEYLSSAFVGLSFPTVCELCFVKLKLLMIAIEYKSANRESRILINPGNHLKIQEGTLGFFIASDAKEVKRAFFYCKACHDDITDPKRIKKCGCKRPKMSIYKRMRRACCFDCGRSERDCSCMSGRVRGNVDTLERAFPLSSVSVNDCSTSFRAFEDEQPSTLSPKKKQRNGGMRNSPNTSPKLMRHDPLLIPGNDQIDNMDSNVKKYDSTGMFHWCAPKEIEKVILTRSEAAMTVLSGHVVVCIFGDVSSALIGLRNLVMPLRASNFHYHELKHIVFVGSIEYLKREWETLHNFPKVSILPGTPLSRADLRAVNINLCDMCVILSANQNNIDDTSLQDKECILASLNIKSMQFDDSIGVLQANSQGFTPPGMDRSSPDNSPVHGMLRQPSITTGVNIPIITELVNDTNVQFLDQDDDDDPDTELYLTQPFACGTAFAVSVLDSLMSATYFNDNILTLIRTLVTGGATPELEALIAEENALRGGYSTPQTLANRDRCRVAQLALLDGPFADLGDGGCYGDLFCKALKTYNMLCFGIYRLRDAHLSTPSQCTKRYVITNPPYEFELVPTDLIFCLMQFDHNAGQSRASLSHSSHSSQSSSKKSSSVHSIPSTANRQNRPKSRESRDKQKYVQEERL

C=C(C)[C@@H]1CCC(C)=C[C@H]1c1c(O)cc(CCCCC)cc1O [CANNABIDIOL]
inhibition [1]: Active
inhibition [2]: 100%
IC50 [3]: 280 nM
inhibition [4]: Active
inhibition [5]: Active
inhibition [6]: Active
inhibition [7]: inactive
inhibition [8]: Active
inhibition [9]: Active
inhibition [10]: Active
inhibition [11]: Active
inhibition [12]: Active
inhibition [13]: 87.4%
Time [14]: 9.11e-05 h
Time [15]: 182 pS
